Measured values from the supplement of paper PMC10307832.

Legend:
Test in all cases: relative viability (nuclei count vs DMSO), 5 days (fraction); higher = more cells survive
A-427 = tested on: A-427
In short: (§1)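 Five library-drug doses in √10 steps were combined with a fixed anchor-drug dose, or a single drug was given alone, by pin tool to lung cancer cell lines in 1536-well plates the day after seeding. Nuclei were stained and counted after 5 days. Relative viability is the nuclei count in treated wells over that in vehicle wells, taken as the median of duplicate plates.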

LC-2-ad = tested on: LC-2-ad
In short: as §1

HCC-15 = tested on: HCC-15
In short: as §1

NCI-H358 = tested on: NCI-H358
In short: as §1

NCI-H1975 = tested on: NCI-H1975
In short: as §1

RERF-LC-KJ = tested on: RERF-LC-KJ
In short: as §1

NCI-H2228 = tested on: NCI-H2228
In short: as §1

PC-3 [JPC-3] = tested on: PC-3 [JPC-3]
In short: as §1

NCI-H2126 = tested on: NCI-H2126
In short: as §1

LXF-289 = tested on: LXF-289
In short: as §1

HOP-62 = tested on: HOP-62
In short: as §1

NCI-H1755 = tested on: NCI-H1755
In short: as §1

NCI-H647 = tested on: NCI-H647
In short: as §1

NCI-H2342 = tested on: NCI-H2342
In short: as §1

NCI-H2347 = tested on: NCI-H2347
In short: as §1

HCC-78 = tested on: HCC-78
In short: as §1

SK-LU-1 = tested on: SK-LU-1
In short: as §1

NCI-H522 = tested on: NCI-H522
In short: as §1

NCI-H1734 = tested on: NCI-H1734
In short: as §1

SW 1573 = tested on: SW 1573
In short: as §1

NCI-H1792 = tested on: NCI-H1792
In short: as §1

NCI-H1915 = tested on: NCI-H1915
In short: as §1

Nc1ccn([C@@H]2O[C@H](CO)[C@@H](O)[C@@H]2O)c(=O)n1 [Cytarabine] + CC(=O)c1c(C)c2cnc(Nc3ccc(N4CCNCC4)cn3)nc2n(C2CCCC2)c1=O [Palbociclib] (partner 0.5 µM)
relative viability (A-427; first compound 0.005 µM): 0.437
relative viability (A-427; first compound 0.01581 µM): 0.474
relative viability (A-427; first compound 0.05 µM): 0.363
relative viability (A-427; first compound 0.1581 µM): 0.281
relative viability (A-427; first compound 0.5 µM): 0.273
relative viability (LC-2-ad; first compound 0.005 µM): 0.412
relative viability (LC-2-ad; first compound 0.01581 µM): 0.417
relative viability (LC-2-ad; first compound 0.05 µM): 0.505
relative viability (LC-2-ad; first compound 0.1581 µM): 0.379
relative viability (LC-2-ad; first compound 0.5 µM): 0.412
relative viability (HCC-15; first compound 0.005 µM): 0.743
relative viability (HCC-15; first compound 0.01581 µM): 0.673
relative viability (HCC-15; first compound 0.05 µM): 0.835
relative viability (HCC-15; first compound 0.1581 µM): 0.671
relative viability (HCC-15; first compound 0.5 µM): 0.514
relative viability (NCI-H358; first compound 0.005 µM): 0.126
relative viability (NCI-H358; first compound 0.01581 µM): 0.115
relative viability (NCI-H358; first compound 0.05 µM): 0.0934
relative viability (NCI-H358; first compound 0.1581 µM): 0.0712
relative viability (NCI-H358; first compound 0.5 µM): 0.0692
relative viability (NCI-H1975; first compound 0.005 µM): 0.453
relative viability (NCI-H1975; first compound 0.01581 µM): 0.574
relative viability (NCI-H1975; first compound 0.05 µM): 0.46
relative viability (NCI-H1975; first compound 0.1581 µM): 0.283
relative viability (NCI-H1975; first compound 0.5 µM): 0.212
relative viability (RERF-LC-KJ; first compound 0.005 µM): 0.858
relative viability (RERF-LC-KJ; first compound 0.01581 µM): 0.882
relative viability (RERF-LC-KJ; first compound 0.05 µM): 0.819
relative viability (RERF-LC-KJ; first compound 0.1581 µM): 0.517
relative viability (RERF-LC-KJ; first compound 0.5 µM): 0.41
relative viability (NCI-H2228; first compound 0.005 µM): 0.445
relative viability (NCI-H2228; first compound 0.01581 µM): 0.343
relative viability (NCI-H2228; first compound 0.05 µM): 0.215
relative viability (NCI-H2228; first compound 0.1581 µM): 0.131
relative viability (NCI-H2228; first compound 0.5 µM): 0.116
relative viability (PC-3 [JPC-3]; first compound 0.005 µM): 0.546
relative viability (PC-3 [JPC-3]; first compound 0.01581 µM): 0.479
relative viability (PC-3 [JPC-3]; first compound 0.05 µM): 0.489
relative viability (PC-3 [JPC-3]; first compound 0.1581 µM): 0.459
relative viability (PC-3 [JPC-3]; first compound 0.5 µM): 0.463
relative viability (NCI-H2126; first compound 0.005 µM): 0.352
relative viability (NCI-H2126; first compound 0.01581 µM): 0.312
relative viability (NCI-H2126; first compound 0.05 µM): 0.298
relative viability (NCI-H2126; first compound 0.1581 µM): 0.277
relative viability (NCI-H2126; first compound 0.5 µM): 0.261
relative viability (LXF-289; first compound 0.005 µM): 0.49
relative viability (LXF-289; first compound 0.01581 µM): 0.563
relative viability (LXF-289; first compound 0.05 µM): 0.511
relative viability (LXF-289; first compound 0.1581 µM): 0.296
relative viability (LXF-289; first compound 0.5 µM): 0.287
relative viability (HOP-62; first compound 0.005 µM): 0.395
relative viability (HOP-62; first compound 0.01581 µM): 0.297
relative viability (HOP-62; first compound 0.05 µM): 0.234
relative viability (HOP-62; first compound 0.1581 µM): 0.139
relative viability (HOP-62; first compound 0.5 µM): 0.155
relative viability (NCI-H1755; first compound 0.005 µM): 0.428
relative viability (NCI-H1755; first compound 0.01581 µM): 0.422
relative viability (NCI-H1755; first compound 0.05 µM): 0.434
relative viability (NCI-H1755; first compound 0.1581 µM): 0.377
relative viability (NCI-H1755; first compound 0.5 µM): 0.414
relative viability (NCI-H647; first compound 0.005 µM): 0.316
relative viability (NCI-H647; first compound 0.01581 µM): 0.206
relative viability (NCI-H647; first compound 0.05 µM): 0.207
relative viability (NCI-H647; first compound 0.1581 µM): 0.0933
relative viability (NCI-H647; first compound 0.5 µM): 0.0634
relative viability (NCI-H2342; first compound 0.005 µM): 0.525
relative viability (NCI-H2342; first compound 0.01581 µM): 0.557
relative viability (NCI-H2342; first compound 0.05 µM): 0.502
relative viability (NCI-H2342; first compound 0.1581 µM): 0.467
relative viability (NCI-H2342; first compound 0.5 µM): 0.435
relative viability (NCI-H2347; first compound 0.005 µM): 0.416
relative viability (NCI-H2347; first compound 0.01581 µM): 0.433
relative viability (NCI-H2347; first compound 0.05 µM): 0.413
relative viability (NCI-H2347; first compound 0.1581 µM): 0.386
relative viability (NCI-H2347; first compound 0.5 µM): 0.407
relative viability (HCC-78; first compound 0.005 µM): 0.492
relative viability (HCC-78; first compound 0.01581 µM): 0.42
relative viability (HCC-78; first compound 0.05 µM): 0.393
relative viability (HCC-78; first compound 0.1581 µM): 0.366
relative viability (HCC-78; first compound 0.5 µM): 0.361
relative viability (SK-LU-1; first compound 0.005 µM): 0.371
relative viability (SK-LU-1; first compound 0.01581 µM): 0.419
relative viability (SK-LU-1; first compound 0.05 µM): 0.271
relative viability (SK-LU-1; first compound 0.1581 µM): 0.307
relative viability (SK-LU-1; first compound 0.5 µM): 0.284
relative viability (NCI-H522; first compound 0.005 µM): 1.09
relative viability (NCI-H522; first compound 0.01581 µM): 0.872
relative viability (NCI-H522; first compound 0.05 µM): 0.824
relative viability (NCI-H522; first compound 0.1581 µM): 0.767
relative viability (NCI-H522; first compound 0.5 µM): 0.595
relative viability (NCI-H1734; first compound 0.005 µM): 0.305
relative viability (NCI-H1734; first compound 0.01581 µM): 0.214
relative viability (NCI-H1734; first compound 0.05 µM): 0.237
relative viability (NCI-H1734; first compound 0.1581 µM): 0.153
relative viability (NCI-H1734; first compound 0.5 µM): 0.155
relative viability (SW 1573; first compound 0.005 µM): 0.334
relative viability (SW 1573; first compound 0.01581 µM): 0.407
relative viability (SW 1573; first compound 0.05 µM): 0.281
relative viability (SW 1573; first compound 0.1581 µM): 0.147
relative viability (SW 1573; first compound 0.5 µM): 0.117
relative viability (NCI-H1792; first compound 0.005 µM): 0.853
relative viability (NCI-H1792; first compound 0.01581 µM): 0.655
relative viability (NCI-H1792; first compound 0.05 µM): 0.618
relative viability (NCI-H1792; first compound 0.1581 µM): 0.508
relative viability (NCI-H1792; first compound 0.5 µM): 0.468
relative viability (NCI-H1915; first compound 0.005 µM): 0.532
relative viability (NCI-H1915; first compound 0.01581 µM): 0.47
relative viability (NCI-H1915; first compound 0.05 µM): 0.37
relative viability (NCI-H1915; first compound 0.1581 µM): 0.265
relative viability (NCI-H1915; first compound 0.5 µM): 0.2
